Measurements taken from patent publication US20190054051A1, “DOPA Formulations for Treatments of Parkinson's Disease” (The Board of Trustees of the Leland Stanford Junior …, priority 2017, published 2019).

What was measured:
p38 = assay: Western blot of phospho p38 and total p38 in striatum; type: in vivo, mice
Method: After behavioral testing, mice again received their assigned injection and then, 45 minutes later, were decapitated under anesthesia. Tissue samples were processed as follows. Briefly, the brain was dissected, rapidly frozen on dry ice, and stored at −80° C. Striatal tissue was collected from 100 μm coronal slices cut at the level of striatum using a cryostat (Leica CM1950, Leica Biosystems Inc, Buffalo Groove, Ill.). Striatal samples from the intact and the lesioned hemisphere were separately collected in 150p1 of lysis solution (Totally RNA, Ambion, Austin, Tex.). Care was taken to make sure that the tissue samples were collected from similar regions in all the brain samples analyzed, since there are differences in the expression of GRKs from rostral to caudal CPu. […]
Western blots were quantified using band densitometry in Image J software (NIH version). […] Results are represented as group mean±SEM and analyzed using one-way or repeated-measures ANOVA (RM-ANOVA), with post hoc Bonferroni tests. The mouse cylinder test was analyzed with RM-ANOVA, with group (DOPA and DOPA-ranitidine formulations) as a between-group factor and saline vs. DOPA treatment as a within-group factor. AIMs scores were analyzed using the Kruskal Wallis test for pre-testing (DOPA injected animals) and the Mann-Whitney U test for the post-testing sessions (DOPA vs DOPA-ranitidine formulations). […]

animal models of PD = settings: previously reported; cited from earlier work

Structure (SMILES): N[C@@H](Cc1ccc(O)c(O)c1)C(=O)O [L-DOPA, L-3,4-dihydroxyphenylalanine]
- p38 phosphorylation in the lesioned hemisphere (p38): increased in the lesioned hemisphere only after DOPA treatment

Structure (SMILES): CN/C(=C\[N+](=O)[O-])NCCSCc1ccc(CN(C)C)o1 [Ranitidine, N-(2-[(5-[(dimethylamino)methyl]furan-2-yl)methylthio]ethyl)-N′-methyl-2-nitroethene-1,1-diamine]
- L-DOPA induced dyskinesia (dyskinetic behavior following DOPA treatment) (animal models of PD): suppress LID
